From patent publication US4769373A, “Anti-arrhythmic azabicyclic compounds” (Richter Gedeon Vegyeszeti Gyar Rt., priority 1983, dated 1988)
Structures can show the parent of a compound that is named as a salt.

Columns and labels:
[1] = system: heart isolated from guinea pig; experiment: electrophysiological parameters (conduction time, refractory period) of isolated heart; details: relative to quinidine
Excerpt: The new compounds have no beta-receptor blocking effect. In a local anaesthetic mechanism of effect the compounds of the formula (I) influence certain electrophysiological parameters of the heart. E.g. increase in conduction time and refractory period were observed on heart isolated from guinea pig.

[2] = system: disorders of the cardiac rhythm provoked by aconitine; experiment: animal or person; details: for LD50/ED50 index: LD50 mice i.v. / ED50 rats i.v.; for ED50 (dose required to restore the rhythm in 50%): i.v., aconitine-induced arrhythmia; for index ratio (index of the test compound : index of Lidocaine): relative to Lidocaine = 1; for ED50: Rattus norvegicus, iv, read-out: ED50 (dose required to restore the rhythm in 50%), Wistar rats, i.v., aconitine-induced arrhythmia
Experimental: The anti-arrhytmic effect was tested in Wistar rats. The animals first received aconitine intravenously to provoke disorders of the cardiac rhythm [M. Fekete and J. Borsy: Med. Exp. Basel, 10, 93 (1964)] and then i.v. the test (or reference) compound. […] The dose required to restore the rhythm in 50% (ED50 mg/kg) was determined.

in vivo = details: mouse, iv, mice, i.v., read-out: LD50 (dose causing 50% mortality)
[3] = system: ischiadic nerve isolated from frog; experiment: local anaesthetic activity on isolated ischiadic nerve; details: relative to Lidocaine

In the case of `CN1CC2CCC(N(C)C)C(C1)C2OC(=O)c1ccccc1` (stereo not drawn) [compound 1542, 6β-dimethylamino-3-methyl-9α-benzoyloxy-3-azabicyclo[3.3.1]nonane], the “activity on electrophysiological parameters compared with quinidine” value [1] is reported as “about five times more active than the quinidine”, the LD50/ED50 index [2] is reported as 50.5 and the “ED50 (dose required to restore the rhythm in 50%)” value ([2]; Wistar rats) is reported as 0.43 mg/kg. For the same compound, the “index ratio (index of the test compound : index of Lidocaine)” value (“index ratio” below) [2] was 15.5, the LD50 (in vivo) was 21.7 mg/kg and the “local anaesthetic activity compared with Lidocaine” value [3] was “four times more favorable effective than Lidocaine”.

With `CN1CC2CCC(N(C)C)C(C1)C2OC(=O)C1c2ccccc2Oc2ccccc21` (stereo not drawn) [compound 1543, 6β-dimethylamino-3-methyl-9α-(xanthen-9'-carbonyloxy)-3-azabicyclo[3.3.1]nonane] the “ED50 (dose required to restore the rhythm in 50%)” value ([2]; Wistar rats) was 0.6 mg/kg.

Compound `CN1CC2CCC(N(C)C)C(C1)C2OC(=O)c1cccc(F)c1` (stereo not drawn) [compound 1642, 6α-dimethylamino-3-methyl-9α-(3'-fluorobenzoyloxy)-3-azabicyclo[3.3.1]nonane dihydrochloride] has an ED50 [2] of 0.5 mg/kg.

For `Cc1ccc(OC2C3CCC(N(C)C)C2CN(C)C3)cc1` (stereo not drawn) [compound 1548, 6α-dimethylamino-3-methyl-9α-(4'-methylphenoxy)-3-azabicyclo[3.3.1]nonane fumarate], the ED50 [2] was 2.5 mg/kg.

In the case of `CN1CC2CCC(N(C)C)C(C1)C2OC(=O)c1ccc(Cl)c(Cl)c1` (stereo not drawn) [compound 1643, 6α-dimethylamino-3-methyl-9α-(3',4'-dichlorobenzoyloxy)-3-azabicyclo[3.3.1]nonane dihydrochloride], the ED50 [2] is reported as 1.2 mg/kg.

`CN1CC2CCC(N(C)C)C(C1)C2Oc1ccccc1Cl` (stereo not drawn) [compound 1536, 6α-dimethylamino-3-methyl-9α-(2'-chlorophenoxy)-3-azabicyclo[3.3.1]nonane dihydrochloride] showed an ED50 [2] of 1.8 mg/kg.

`CN1CC2CCC(N(C)C)C(C1)C2OC(=O)c1ccc2ccccc2c1` (stereo not drawn) [compound 1801, 6α-dimethylamino-3-methyl-9α-(2'-naphthoyloxy)-3-azabicyclo[3.3.1]nonane] gave an ED50 [2] of 0.7 mg/kg.

For `CN1CC2CCC(N(C)C)C(C1)C2OC(=O)c1ccc(Cl)cc1` (stereo not drawn) [compound 1658, 6β-dimethylamino-3-methyl-9α-(4'-chlorobenzoyloxy)-3-azabicyclo[3.3.1]nonane dihydrochloride], the “ED50 (dose required to restore the rhythm in 50%)” value ([2]; Wistar rats, dihydrochloride) was 2.3 mg/kg.

With `CN1CC2CCC(N(C)C)C(C1)C2OC(=O)C1c2ccccc2Oc2ccccc21` (stereo not drawn) [compound 1531, 6α-dimethylamino-3-methyl-9α-(xanthen-9-carbonyloxy)-3-azabicyclo[3.3.1]nonane dihydrochloride] the ED50 [2] was 1 mg/kg.

For `CN1CC2CCC(N(C)C)C(C1)C2Oc1cccc(C(F)(F)F)c1` (stereo not drawn) [compound 1545, 6β-dimethylamino-3-methyl-9α-(3'-trifluoromethylphenoxy)-3-azabicyclo[3.3.1]nonane dihydrochloride], the “ED50 (dose required to restore the rhythm in 50%)” value ([2]; Wistar rats, dihydrochloride) was 1.8 mg/kg.

Compound `CN1CC2CCC(N(C)C)C(C1)C2OC(=O)c1cccs1` (stereo not drawn) [compound 1797, 6α-dimethylamino-3-methyl-9α-(2'-thenoyloxy)-3-azabicyclo[3.3.1]nonane] has an ED50 [2] of 0.45 mg/kg.

Compound `CN1CC2CCC(N(C)C)C(C1)C2OC(=O)c1ccc(F)cc1` (stereo not drawn) [compound 1641, 6α-dimethylamino-3-methyl-9α-(4'-fluorobenzoyloxy)-3-azabicyclo[3.3.1]nonane dihydrochloride monohydrate] has an ED50 [2] of 0.55 mg/kg.

In the case of `CN1CC2CCC(N(C)C)C(C1)C2OC(=O)C1c2ccccc2Oc2ccccc21` (stereo not drawn) [compound 1547, 6α-dimethylamino-3-methyl-9β-(xanthen-9'-carbonyloxy)-3-azabicyclo[3.3.1]nonane], the LD50/ED50 index [2] is reported as 51.1, the “ED50 (dose required to restore the rhythm in 50%)” value ([2]; Wistar rats) is reported as 0.71 mg/kg and the “index ratio” value [2] is reported as 15.7. It also gave an LD50 (in vivo) of 36.3 mg/kg.

For `CN1CC2CCC(N(C)C)C(C1)C2Oc1cccc(C(F)(F)F)c1` (stereo not drawn) [compound 1539, 6α-dimethylamino-3-methyl-9α-(3'-trifluoromethylphenoxy)-3-azabicyclo[3.3.1]nonane fumarate], the LD50/ED50 index [2] was 256.0, the “ED50 (dose required to restore the rhythm in 50%)” value ([2]; Wistar rats) was 0.25 mg/kg and the “index ratio” value [2] was 78.5. The LD50 (in vivo) was 64 mg/kg and the “local anaesthetic activity compared with Lidocaine” value [3] was “as active as the Lidocaine”.

Compound `CN1CC2CCC(N(C)C)C(C1)C2OC(=O)c1cccc(Cl)c1` (stereo not drawn) [compound 1645, 6α-dimethylamino-3-methyl-9α-(3'-chlorobenzoyloxy)-3-azabicyclo[3.3.1]nonane dihydrochloride monohydrate] has an ED50 [2] of 1.2 mg/kg.

`CN1CC2CCC(N(C)C)C(C1)C2Oc1ccccc1` (stereo not drawn) [compound 1533, 6α-dimethylamino-3-methyl-9α-phenoxy-3-azabicyclo[3.3.1]nonane] showed an ED50 [2] of 1.4 mg/kg.

With `CN1CC2CCC(N(C)C)C(C1)C2Oc1ccccc1` (stereo not drawn) [compound 1544, 6β-dimethylamino-3-methyl-9α-phenoxy-3-azabicyclo-[3.3.1]nonane] the “ED50 (dose required to restore the rhythm in 50%)” value ([2]; Wistar rats) was 1.4 mg/kg.

For `CN1CC2CCC(N(C)C)C(C1)C2OC(=O)c1ccc2ccccc2c1` (stereo not drawn) [compound 1840, 6β-dimethylamino-3-methyl-9α-(2'naphthoyloxy)-3-azabicyclo[3.3.1]nonane dihydrochloride], the “ED50 (dose required to restore the rhythm in 50%)” value ([2]; Wistar rats, dihydrochloride) was 0.95 mg/kg.

In the case of `CCN(CC)CC(=O)Nc1c(C)cccc1C` [Lidocaine, reference compound], the ED50 [2] is reported as 7.7 mg/kg.

Work on `Cc1ccc(C(=O)OC2C3CCC(N(C)C)C2CN(C)C3)cc1` (stereo not drawn) [compound 1799, 6α-dimethylamino-3-methyl-9α-(4'-methylbenzoyloxy)-3-azabicyclo[3.3.1]nonane dihydrochloride] yielded an ED50 [2] of 1.1 mg/kg.

Work on `CN1CC2CCC(N(C)C)C(C1)C2OC(=O)c1ccc(-c2ccccc2)cc1` (stereo not drawn) [compound 1530, 6α-dimethylamino-3-methyl-9α-(4'-phenylbenzoyloxy)-3-azabicyclo[3.3.1]nonane] yielded an ED50 [2] of 1.8 mg/kg.

With `CN1CC2CCC(N(C)C)C(C1)C2OC(=O)c1ccccc1` (stereo not drawn) [compound 1541, 6α-dimethylamino-3-methyl-9β-benzoyloxy-3-azabicyclo[3.3.1]nonane dihydrochloride] the “ED50 (dose required to restore the rhythm in 50%)” value ([2]; Wistar rats, dihydrochloride) was 3.5 mg/kg.

`CN1CC2CCC(N(C)C)C(C1)C2Oc1ccc(Cl)c(Cl)c1` (stereo not drawn) [compound 1537, 6α-dimethylamino-3-methyl-9α-(3',4'-dichlorophenoxy)-3-azabicyclo[3.3.1]noname fumarate] gave an ED50 [2] of 4 mg/kg.

With `COc1cc(C(=O)OC2C3CCC(N(C)C)C2CN(C)C3)cc(OC)c1OC` (stereo not drawn) [compound 1529, 6α-dimethylamino-3-methyl-9α(3',4',5'-trimethoxybenzoyloxy)-3-azabicyclo[3.3.1]nonane] the LD50/ED50 index [2] was 234.0, the ED50 [2] was 0.15 mg/kg and the “anti-arrhythmic effect, oral” value ([2]; Wistar rats, 20 mg/kg dose p.o.) was “prolonged anti-arrhythmic effect”. For the same compound, the “index ratio” value [2] was 71.8 and the LD50 (in vivo) was 35.2 mg/kg.

In the case of `CN1CC2CCC(N(C)C)C(C1)C2Oc1cccc(Cl)c1` (stereo not drawn) [compound 1535, 6α-dimethylamino-3-methyl-9α-(3'-chlorophenoxy)-3-azabicyclo[3.3.1]nonane monohydrochloride], the ED50 [2] is reported as 2.5 mg/kg.

`CN1CC2CCC(N(C)C)C(C1)C2OC(=O)c1ccccc1Cl` (stereo not drawn) [compound 1644, 6α-dimethylamino-3-methyl-9α-(2'-chlorobenzoyloxy)-3-azabicyclo[3.3.1]nonane dihydrochloride monohydrate] showed an ED50 [2] of 1.4 mg/kg.

With `CN1CC2CCC(N(C)C)C(C1)C2OC(=O)c1ccc(Cl)cc1` (stereo not drawn) [compound 1800, 6α-dimethylamino-3-methyl-9α-(4'-chlorobenzoyloxy)-3-azabicyclo[3.3.1]nonane dihydrochloride] the “ED50 (dose required to restore the rhythm in 50%)” value ([2]; Wistar rats, dihydrochloride) was 0.75 mg/kg.

`CN1CC2CCC(N(C)C)C(C1)C2Oc1ccc(Cl)cc1` (stereo not drawn) [compound 1534, 6α-dimethylamino-3-methyl-9α-(4'-chlorophenoxy)-3-azabicyclo[3.3.1]nonane fumarate] showed an ED50 [2] of 1.1 mg/kg.

With `CN1CC2CCC(N(C)C)C(C1)C2OC(c1ccccc1)c1ccccc1` (stereo not drawn) [compound 1540, 6α-dimethylamino-3-methyl-9α-benzhydryloxy-3-azabiocyclo[3.3.1]nonane] the ED50 [2] was 0.4 mg/kg.

In the case of `CN1CC2CCC(N(C)C)C(C1)C2OC(=O)c1ccccc1` (stereo not drawn) [compound 1528, 6α-dimethylamino-3-methyl-9α-benzoyloxy-3-azabicyclo[3.3.1]nonane dihydrochloride], the “ED50 (dose required to restore the rhythm in 50%)” value ([2]; Wistar rats, dihydrochloride) is reported as 0.68 mg/kg.

Work on `CN1CC2CCC(N(C)C)C(C1)C2OC(=O)c1cccc(C(F)(F)F)c1` (stereo not drawn) [compound 1648, 6α-dimethylamino-3-methyl-9α-(3'-trifluoremethylbenzoyloxy)-3-azabicyclo[3.3.1]nonane dihydrochloride] yielded an ED50 [2] of 1 mg/kg.
